# Source: US10525055B2, “Opioid receptor antagonist prodrugs” (Nirsum Laboratories, Inc., priority 2017, dated 2020)
# Columns and labels:
# [1] = Rat pharmacokinetic studies, intramuscular; assay type: in vivo, male Sprague Dawley Rats; details: rat IM, Sesame oil + 1% Benzyl Alcohol
# Method: The purpose of this study is to determine the pharmacokinetics of test compounds in plasma, following intramuscular administration to male Sprague Dawley Rats (n=3, unless otherwise specified).
# The dose formulation of 400 mg base equivalents/ml in sesame oil+1% benzyl alcohol (unless otherwise specified) was administered by intramuscular injection. The dose volume was determined by the animals' body weight determined on the morning of dosing day.
# Each collected blood sample was centrifuged for 4 minutes at 4° C. and 10000 rpm for plasma collection. Plasma was collected and transferred into a pre-labeled PP tube in dry ice at each time point and precipitated immediately using ACN at a ratio of 1:4 (plasma:ACN). Centrifuged again (10 minutes, 12000 rpm) and obtain the supernatant.
# After terminal collection, all supernatant was stored at approximately −80° C. until bioanalysis.
# LC-MS/MS methods for the quantitative determination of test compound in biological matrix were developed. […] The sample analysis was performed concurrently with a set of calibration standards and two sets of QC samples using the LC-MS/MS method.
# Plasma concentration versus time data was analyzed by non-compartmental approaches using the Phoenix WinNonlin 6.3 software program. Cmax, Tmax, T1/2, AUC(0-t), AUC(0-inf), MRT(0-t), MRT(0-inf) and graphs of plasma concentration versus time profile were prepared.
# [2] = Liver S9 fraction stability, dog; assay type: in vitro ADME; details: 1.0 mg/ml S9 protein, 2 μM, 37° C.
# Method: (§1) Liver S9 fraction stability determination of the test compounds in dog, cynomolgus monkey and human is performed using HPLC-MS. Test compound (2 μM, 0.1% DMSO, 1% Methanol final concentration) was assessed for stability in a 50 μl phosphate buffer containing 1.0 mg/ml S9 protein from each of the three species and 5 mM D-saccharic acid-1, 4-lactone. Samples were incubated at 37° C. for 60 minutes and the % compound remaining was assessed.
# [3] = Plasma stability assay, dog plasma; assay type: in vitro ADME; details: 37° C., 2 μM
# Method: (§2) Plasma stability determination of the test compounds in rat, dog, cynomolgus monkey and human plasma is performed using HPLC-MS. For rat, incubations are carried out in 96-well polypropylene plates in 5 aliquots of 70 μL each (one for each time point). […] Five time points are analyzed (0, 15, 120, 480 and 1440 min). […] All incubations are performed in duplicates. The samples are analyzed by HPLC-MS. The percentage of parent compound remaining after incubation in plasma is determined.
# [4] = Liver S9 fraction stability, human; assay type: in vitro ADME; details: 1.0 mg/ml S9 protein, 2 μM, 37° C.
# Method: as §1
# [5] = Plasma stability assay, human plasma; assay type: in vitro ADME; details: 37° C., 2 μM
# Method: as §2
# [6] = Plasma stability assay, monkey plasma; assay type: in vitro ADME, cynomolgus monkey; details: 37° C., 2 μM
# Method: as §2
# [7] = Dog pharmacokinetic studies, deep intramuscular; assay type: in vivo, Beagle dogs; details: dog IM, Sesame oil + 1% Benzyl Alcohol
# [8] = Liver S9 fraction stability, monkey; assay type: in vitro ADME, cynomolgus monkey; details: 1.0 mg/ml S9 protein, 2 μM, 37° C.
# Method: as §1
# [9] = Solubility determination in oil (cottonseed oil, sesame oil); details: Sesame oil
# Method: A known amount of test substance (˜40 mg) was weighed into the vial, 100 μL of oil was added and heated to 60° C. and then system was slurried to reach equilibrium. […] Extra oil was added into the vial once compound precipitated out and then the system was re-equilibrated at 1000 rpm at room temperature (25° C.). Final concentration was determined by HPLC method as described below in Table 6a and 6b.
# [10] = Plasma stability assay, rat plasma; assay type: in vitro ADME; details: 37° C., 10 μM
structure (smiles),measurement,setting,value
"C=C1CC[C@@]2(O)C3Cc4ccc(OC(=O)CCCCCCC/C=C/CCCCCCCC)c5c4[C@@]2(CCN3CC2CC2)[C@H]1O5 [Compound 15, (4aS,7aS,12bS)-3-(cyclopropylmethyl)-4a-hydroxy-7-methylene-2,3,4,4a,5,6,7,7a-octahydro-1H-4,12-methanobenzofuro[3,2-e]isoquinolin-9-yl (E)-octadec-9-enoate]",AUC0-inf (ng · h/mL) prodrug,[1]; 80 mg/kg,679 ng·h/mL
same,AUC0-inf (ng · h/mL) prodrug,[1]; 123 mg/kg,2574 ng·h/mL
same,AUC0-inf (ng · h/mL) prodrug,[1]; 165 mg/kg,2789 ng·h/mL
same,Half-life t1/2 (hour) prodrug,[1]; 165 mg/kg,500 h
same,"Liver S9 Fraction Stability % remaining at 60 minutes, Dog",[2],80.9%
same,"% remaining at time point in minutes, 0 min",[3]; 0 min,100%
same,"% remaining at time point in minutes, 15 min",[3]; 15 min (as headed),82.5%
same,"% remaining at time point in minutes, 120 min",[3]; 120 min (as headed),80.6%
same,"% remaining at time point in minutes, 480 min",[3]; 480 min (as headed),90.1%
same,"% remaining at time point in minutes, 1440 min",[3]; 1440 min (as headed),86.1%
same,"Liver S9 Fraction Stability % remaining at 60 minutes, Human",[4],59.8%
same,"% remaining at time point in minutes, 0 min",[5]; 0 min,100%
same,"% remaining at time point in minutes, 15 min",[5]; 15 min (as headed),83.3%
same,"% remaining at time point in minutes, 120 min",[5]; 120 min (as headed),82.5%
same,"% remaining at time point in minutes, 480 min",[5]; 480 min (as headed),107.1%
same,"% remaining at time point in minutes, 1440 min",[5]; 1440 min (as headed),109.0%
same,"% remaining at time point in minutes, 0 min",[6]; 0 min,100%
same,"% remaining at time point in minutes, 15 min",[6]; 15 min (as headed),74.5%
same,"% remaining at time point in minutes, 120 min",[6]; 120 min (as headed),72.7%
same,"% remaining at time point in minutes, 480 min",[6]; 480 min (as headed),80.6%
same,"% remaining at time point in minutes, 1440 min",[6]; 1440 min (as headed),76.5%
same,AUC0-inf (ng · h/mL) prodrug,[7]; 30 mg/kg,521 ng·h/mL
same,Half-life t1/2 (hour) prodrug,[7]; 30 mg/kg,134 h
same,AUC0-inf (ng · h/mL) prodrug,[7]; 48 mg/kg,1144 ng·h/mL
same,Half-life t1/2 (hour) prodrug,[7]; 48 mg/kg,518 h
same,AUC0-inf (ng · h/mL) prodrug,[7]; 96 mg/kg,1353 ng·h/mL
same,Half-life t1/2 (hour) prodrug,[7]; 96 mg/kg,162 h
same,"Liver S9 Fraction Stability % remaining at 60 minutes, Monkey",[8],76.7%
same,Approximate Solubility (mg/mL) in Excipient: Sesame oil,"[9]; heating temp. 40 °C, obs. temp. 40 °C",<52 mg/mL
same,Approximate Solubility (mg/mL) in Excipient: Sesame oil,"[9]; heating temp. 60 °C, obs. temp. 25 °C",>396.5 mg/mL
same,"% remaining at time point in minutes, 0 min",[10]; 0 min,100%
same,"% remaining at time point in minutes, 15 min",[10]; 15 min,72%
same,"% remaining at time point in minutes, 120 min",[10]; 120 min,69.3%
same,"% remaining at time point in minutes, 480 min",[10]; 480 min,52%
same,"% remaining at time point in minutes, 1440 min",[10]; 1440 min,35%
